What was measured:
[1] = test system: Smooth muscle cells (SMC) derived from the aortic tunica media of stroke-prone spontaneously hypertensive rats (SHRSP); test: Study 2 on arteriosclerosis capability: propagation of smooth muscle cells of the tunica media; format: cell-based; details: 0.1 to 30 μmol/liter, five days; for smooth muscle cell propagating capability, number of cells (Determination A, FIG. 5): 10% FBS; for smooth muscle cell propagating capability, number of cells (Determination B, FIG. 6): with 20 ng/ml PDGF
Procedure: The object of the study is to investigate the effect of the above-described concentrated material of the present invention in terms of preventing propagation of smooth muscle cells of the tunica media of the blood vessels, which is one factor in arteriosclerosis.
1) Smooth muscle cells (SMC) derived from the aortic tunica media of stroke-prone spontaneously hypertensive rats (SHRSP) were prepared by the explant method, and five generations were cultivated.
2) After inoculating 10,000 well SMC in a 24-well plate, the cells were rinsed in the subconfluent state with DMEM medium containing 10% FBS at 37° C. and in the presence of 5% CO2. [The medium] was replaced with DMEM medium containing 0.4% albumin (phenol red-free) and cultivated for 48 hours.
3) Genistein (referred to hereafter as Gen), daidzein (referred to hereafter as Dai), glycitein (referred to hereafter as Gly), and the concentrated material of the present invention were each added to DMEM culture medium (phenol red-free) containing 10% FBS (charcoal-treated) to a concentration of 0.1 to 30 μmol/liter and cultivated for five days. Then, the number of cells was determined with a Coulter counter (referred to hereafter as Determination A).
4) The number of cells was determined by adding 20 ng/ml PDGF in accordance with the method 3) described above (referred to as Determination B).

[2] = test system: chicks; test: Study 1 on immune-activating capability: number of deaths during rearing of chicks; format: in vivo; details: administered to comparison group after three weeks
Procedure: The object of the study is to investigate the immune-activating capability based on the number of deaths during rearing of chicks.
6,200 young chicks immediately after hatching were grouped into a comparison group and a study group each. The comparison group was provided conventional feed to which Bacillus subtilus (0.1 wt %) was added, and the study group was provided conventional feed to which the product (0.1 wt %) of propagation of lactic acid bacteria (Enterococcus faesium) as useful microorganisms in pulse crops of the present invention was added, and the number of deaths of chicks at one week, two weeks, three weeks, and four weeks of age was compared.

SMILES | smooth muscle cell propagating capability, number of cells (Determination A, FIG. 5) [1] | smooth muscle cell propagating capability, number of cells (Determination B, FIG. 6) [1] | increase in deaths of chicks after antibiotic administration [2]
O=c1c(-c2ccc(O)cc2)coc2cc(O)ccc12 [Dai, daidzein] | cell-reducing effect | cell-reducing effect | –
O=c1c(-c2ccc(O)cc2)coc2cc(O)cc(O)c12 [Gen, Genistein] | cell-reducing effect | cell-reducing effect | –
CC1(C)S[C@@H]2[C@H](NC(=O)[C@H](N)c3ccccc3)C(=O)N2[C@H]1C(=O)O [ampicillin] | – | – | an increase in deaths could not be prevented
